Measurements reported in patent US8546603B2, “Substituted cyclopentanes having prostaglandin activity” (Allergan, Inc., priority 2007, dated 2013).
Read-outs that look alike come from different tables or passages of the source.

Experiments:
EP2 [1] = molecular target: T1, EP2 (Homo sapiens, UniProt P43116); test: EP2 cAMP assay; assay type: cell-based
Text: (§1) U.S. patent application Ser. No. 11/553,143, filed on Oct. 26, 2006, incorporated by reference herein, describes the methods used to obtain the in vitro data in Table 1 below.

EP2 [2] = molecular target: T1, EP2; test: EP2 Ca2+ signal assay; assay type: cell-based; details: for EP2 Ca2+ signal % PGE2: relative to PGE2
Text: as §1

EP4 [3] = molecular target: T2, EP4 (Homo sapiens, UniProt P35408); test: EP4 binding assay
T2 sequence (P35408 whole entry): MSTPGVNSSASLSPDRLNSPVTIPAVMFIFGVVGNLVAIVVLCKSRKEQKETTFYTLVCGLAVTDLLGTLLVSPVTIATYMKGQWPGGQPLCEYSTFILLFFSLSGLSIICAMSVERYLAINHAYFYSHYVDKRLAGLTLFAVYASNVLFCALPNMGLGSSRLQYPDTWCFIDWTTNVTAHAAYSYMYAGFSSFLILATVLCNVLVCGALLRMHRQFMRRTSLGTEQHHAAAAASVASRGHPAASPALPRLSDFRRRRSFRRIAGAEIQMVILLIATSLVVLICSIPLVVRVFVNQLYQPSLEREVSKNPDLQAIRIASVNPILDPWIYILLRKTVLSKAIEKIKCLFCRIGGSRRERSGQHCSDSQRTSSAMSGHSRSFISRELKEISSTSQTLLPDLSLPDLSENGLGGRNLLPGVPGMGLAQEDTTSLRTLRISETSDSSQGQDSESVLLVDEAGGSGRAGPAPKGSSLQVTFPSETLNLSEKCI
Text: as §1

EP2 [4] = molecular target: T1, EP2; test: EP2 binding assay
Text: as §1

EP3 = molecular target: T3, EP3 (Homo sapiens, UniProt P43115); test: EP3 functional assay; assay type: cell-based
T3 sequence (P43115 1-390): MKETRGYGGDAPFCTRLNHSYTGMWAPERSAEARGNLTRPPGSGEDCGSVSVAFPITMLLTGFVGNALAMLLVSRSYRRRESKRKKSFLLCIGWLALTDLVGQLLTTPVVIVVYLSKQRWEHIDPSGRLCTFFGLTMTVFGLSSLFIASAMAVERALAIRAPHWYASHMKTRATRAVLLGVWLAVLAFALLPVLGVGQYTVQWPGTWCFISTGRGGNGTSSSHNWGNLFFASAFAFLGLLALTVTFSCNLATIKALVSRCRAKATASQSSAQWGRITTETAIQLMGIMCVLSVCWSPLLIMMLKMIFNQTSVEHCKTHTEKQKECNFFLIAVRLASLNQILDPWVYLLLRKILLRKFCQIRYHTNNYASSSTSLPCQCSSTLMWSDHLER
Text: as §1

TP = molecular target: T4, TP (Homo sapiens, UniProt P21731); test: TP functional assay; assay type: cell-based
T4 sequence (P21731 1-343): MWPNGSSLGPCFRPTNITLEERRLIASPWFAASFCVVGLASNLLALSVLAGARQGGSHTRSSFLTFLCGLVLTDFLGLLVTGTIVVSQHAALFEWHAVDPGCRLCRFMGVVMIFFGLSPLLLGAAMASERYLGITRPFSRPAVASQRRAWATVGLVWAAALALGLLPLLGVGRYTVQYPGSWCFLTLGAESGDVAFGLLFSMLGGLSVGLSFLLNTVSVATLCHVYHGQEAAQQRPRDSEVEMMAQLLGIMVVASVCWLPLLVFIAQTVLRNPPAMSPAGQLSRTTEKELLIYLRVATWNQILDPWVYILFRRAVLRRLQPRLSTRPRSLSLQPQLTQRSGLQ
Text: as §1

EP4 [5] = molecular target: T2, EP4; test: EP4 Ca2+ signal assay; assay type: cell-based; details: for EP4 Ca2+ signal % PGE2: relative to PGE2
Text: as §1

EP1 = molecular target: T5, EP1 (Homo sapiens, UniProt P34995); test: EP1 functional assay; assay type: cell-based
T5 sequence (P34995 1-402): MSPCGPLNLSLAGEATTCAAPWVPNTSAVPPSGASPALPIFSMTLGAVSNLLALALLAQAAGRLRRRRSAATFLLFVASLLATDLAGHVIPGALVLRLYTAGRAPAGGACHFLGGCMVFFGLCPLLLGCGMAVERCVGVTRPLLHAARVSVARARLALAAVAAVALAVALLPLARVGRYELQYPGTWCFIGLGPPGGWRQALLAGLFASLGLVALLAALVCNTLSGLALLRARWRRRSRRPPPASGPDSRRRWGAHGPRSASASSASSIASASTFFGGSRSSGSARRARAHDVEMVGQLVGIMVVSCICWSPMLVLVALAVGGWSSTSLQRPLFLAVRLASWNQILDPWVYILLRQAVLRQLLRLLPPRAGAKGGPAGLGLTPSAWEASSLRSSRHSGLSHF
Text: as §1

T1 sequence (P43116 whole entry): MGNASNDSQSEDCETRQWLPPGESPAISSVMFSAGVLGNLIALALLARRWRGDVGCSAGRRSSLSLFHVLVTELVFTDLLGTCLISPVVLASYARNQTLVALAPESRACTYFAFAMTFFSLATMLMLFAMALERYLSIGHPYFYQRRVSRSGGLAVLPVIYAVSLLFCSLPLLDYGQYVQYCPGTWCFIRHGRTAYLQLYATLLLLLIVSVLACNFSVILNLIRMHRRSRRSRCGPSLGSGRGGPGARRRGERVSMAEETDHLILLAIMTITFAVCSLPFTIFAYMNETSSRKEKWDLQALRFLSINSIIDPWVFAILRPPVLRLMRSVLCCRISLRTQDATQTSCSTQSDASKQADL

EC50 (EP2 [1]) [nM] | EC50 (EP2 [2]) [nM] | EP2 Ca2+ signal % PGE2 (EP2 [2]; listed as 219309) [%] | EC50 (EP4 [3]) [nM] | EP4 Binding % Inh (EP4 [3]; listed as 219309) [%] | EC50 (EP2 [4]) [nM] | EP2 Binding % Inh (EP2 [4]; listed as 219309) [%] | EC50 (EP3) [nM] | EC50 (TP) [nM] | EP2 Ca2+ signal % PGE2 (EP2 [2]) [%] | EC50 (EP4 [5]) [nM] | EP4 Ca2+ signal % PGE2 (EP4 [5]) [%] | EP4 Binding % Inh (EP4 [3]) [%] | EC50 (EP1) [nM] | EP2 Binding % Inh (EP2 [4]) [%] | EP2 Ca2+ signal % PGE2 (EP2 [2]; listed as 219310) [%] | EP4 Binding % Inh (EP4 [3]; listed as 219310) [%] | EP2 Binding % Inh (EP2 [4]; listed as 219310) [%] | Compound
25 | 4020 | 63 | > 10000 | 9 | 3310 | 68 |  |  |  |  |  |  |  |  |  |  |  | COC(/C=C/[C@@H]1[C@@H](CCCc2ccc(C(=O)O)s2)[C@H](Cl)C[C@H]1O)CCC[C@@H](C)O (stereo partly shown) [AGN-219309]
0.7 | 28 |  | 1510 |  | 530 |  | 11 | 3010 | 100 | 192 | 100 | 75 | 308 | 92 |  |  |  | C[C@@H](O)CCC[C@H](O)/C=C/[C@H]1[C@H](O)CC(=O)[C@@H]1C/C=C\CCCC(=O)O [AGN-191286]
3 | 281 |  | > 10000 |  | 171 |  |  |  |  |  |  |  |  |  | 77 | 6 | 90 | COC(/C=C/[C@@H]1[C@@H](CCCc2ccc(C(=O)O)s2)[C@H](Cl)C[C@H]1O)CCC[C@@H](C)O (stereo partly shown) [AGN-219310]
1.4 | 20 |  | 1280 |  | 381 |  |  |  | 91 | 35 | 120 | 98 |  | 91 |  |  |  | C[C@H](O)CCC[C@H](O)/C=C/[C@@H]1[C@@H](CCCc2ccc(C(=O)O)s2)[C@H](Cl)C[C@H]1O [AGN-221568]
0.06 | 7.4 |  | 2350 |  | 66 |  | 499 |  | 106 | 145 | 121 | 64 | 724 | 99 |  |  |  | C[C@@H](O)CCC[C@H](O)/C=C/[C@@H]1[C@@H](CCCc2ccc(C(=O)O)s2)[C@H](Cl)C[C@H]1O [AGN-217510]
0.9 | 34 |  | 1670 |  | 487 |  | 21 | 5270 | 100 | 193 | 102 | 75 | 2760 | 87 |  |  |  | C[C@@H](O)CCC[C@H](O)/C=C/[C@H]1[C@H](O)CC(=O)[C@@H]1CCCCCCC(=O)O [AGN-191287]
